The test system of one data set is HEK293A cells. The data set can be described thus: Intrinsic cytotoxicity, EZ4U colorimetric test, HEK293A. It counts as cell-based, human. The settings on record: Figure 6. The method, then:
(§1) Cytotoxicity of the compounds was examined against human cell lines HEK293A (human embryonic kidney)—WT and TDP1-deficient (Tdp1-/-), and HeLa (cervical cancer) using an EZ4U colorimetric tests (Biomedica, Vienna, Austria) or xCELLigence DP Real-Time Cell Analyzer (ACEA Biosciences, Santa Clara, CA, USA). Cell lines were obtained from the Russian Cell Culture Collection (RCCC) Institute of Cytology RAS (St. Petersburg, Russia). The cells were grown in DMEM/F12 medium (Thermo Fisher Scientific, Waltham, MA, USA), with 1× GlutaMAX (Thermo Fisher Scientific, Waltham, MA, USA), 50 IU/mL penicillin, and 50 μg/mL streptomycin (Thermo Fisher Scientific, Waltham, MA, USA), and in the presence of 10% fetal bovine serum (Biolot, Saint-Petersburg, Russia) in 5% CO2 atmosphere. Control cells were grown in the presence of 1% DMSO where indicated. After formation of a 30–50% monolayer, tested compounds were added to the medium, and the cell culture was monitored for 3 days. […] The measurements were carried out in three parallel experiments.
(§2) The intrinsic cytotoxicity of the four lead compounds (11a–d) was examined using a colorimetric test (Figure 6).

Another data set relates to HeLa cells. Briefly: Intrinsic cytotoxicity, EZ4U colorimetric test, HeLa. It counts as cell-based, human. The settings on record: Figure 6. As to the method: as §1, §2
The target in another data set is T1, TDP1 (Homo sapiens, UniProt Q9NUW8).
T1 construct: made in house; host or cells: E. coli
T1 sequence (Q9NUW8 whole entry): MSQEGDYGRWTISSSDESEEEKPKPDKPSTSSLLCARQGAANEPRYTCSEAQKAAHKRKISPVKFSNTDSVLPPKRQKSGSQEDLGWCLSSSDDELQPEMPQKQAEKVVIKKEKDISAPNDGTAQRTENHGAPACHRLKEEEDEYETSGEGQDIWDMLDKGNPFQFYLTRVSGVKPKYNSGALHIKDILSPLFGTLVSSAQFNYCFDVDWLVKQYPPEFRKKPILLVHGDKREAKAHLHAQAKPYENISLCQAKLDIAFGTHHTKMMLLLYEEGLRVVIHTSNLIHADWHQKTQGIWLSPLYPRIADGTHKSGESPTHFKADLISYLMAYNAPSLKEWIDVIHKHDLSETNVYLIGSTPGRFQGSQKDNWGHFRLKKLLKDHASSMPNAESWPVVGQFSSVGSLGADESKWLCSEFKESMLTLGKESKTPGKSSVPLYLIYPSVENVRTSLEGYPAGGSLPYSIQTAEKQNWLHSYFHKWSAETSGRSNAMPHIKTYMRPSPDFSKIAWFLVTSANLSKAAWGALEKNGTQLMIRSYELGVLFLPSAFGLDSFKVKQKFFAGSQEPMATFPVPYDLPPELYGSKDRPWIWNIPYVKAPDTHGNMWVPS
Briefly: Real-time fluorescence detection of TDP1 activity (FAM/BHQ1 oligonucleotide biosensor). Format: biochemical.

Where [1] appears, read: as repeated in Table S1, read-out: IC50.
The mark [2] stands for this setting: as repeated in Table S2, read-out: IC50.
The mark [3] stands for this setting: as repeated in Table S3, read-out: IC50.
Where [4] appears, read: real-time fluorescent test, 1.5 nM TDP1, 50 nM substrate, 26 °C, read-out: IC50, TDP1 activity.

Where two headings read alike, the source gives them in different places.

With `CC(=O)c1c(O)c(C)c(O)c2c1OC1=CC(=O)/C(=C(/C)NC/C=C(\C)CCC=C(C)C)C(=O)[C@@]12C` [11b, (2R,4E)-10-Acetyl-4-(1-{[(2E)-3,7-dimethylocta-2,6-dien-1-yl]amino}ethylidene)-11,13-dihydroxy-2,12-dimethyl-8-oxatricyclo[7.4.0.0^2,7]trideca-1(13),6,9,11-tetraene-3,5-dione], the “intrinsic cytotoxicity (in words)” value in the data set with HEK293A cells and in the data set on HeLa cells was “completely suppressed cell growth at 100 μM” each time. Further, the IC50 on TDP1 (setting [1]) worked out at 0.32 µM.

For the compound `CC(=O)c1c(O)c(C)c(O)c2c1OC1=CC(=O)/C(=C(/C)NCC3=CC[C@H]4C[C@@H]3C4(C)C)C(=O)[C@@]12C` [11d, (2R,4E)-10-Acetyl-4-[1-({[(1R,5S)-6,6-dimethylbicyclo[3.1.1]hept-2-en-2-yl]methyl}amino)ethylidene]-11,13-dihydroxy-2,12-dimethyl-8-oxatricyclo[7.4.0.0^2,7]trideca-1(13),6,9,11-tetraene-3,5-dione], the “intrinsic cytotoxicity (in words)” value in the data set with HEK293A cells and in the data set with HeLa cells was “completely suppressed cell growth at 100 μM” in each case. The IC50 on TDP1 (setting [1]) was determined as 0.23 µM.

As for `C=C(C)[C@@H]1CC=C(CN/C(C)=C2\C(=O)C=C3Oc4c(C(C)=O)c(O)c(C)c(O)c4[C@@]3(C)C2=O)CC1` [11e, (2R,4E)-10-Acetyl-11,13-dihydroxy-2,12-dimethyl-4-[1-({[(4S)-4-(prop-1-en-2-yl)cyclohex-1-en-1-yl]methyl}amino)ethylidene]-8-oxatricyclo[7.4.0.0^2,7]trideca-1(13),6,9,11-tetraene-3,5-dione], the IC50 at TDP1 (setting [1]), on TDP1 (setting [2]), at TDP1 (setting [3]) and at TDP1 (setting [4]) was > 10 µM each time. Besides, the “IC50, TDP1 activity” value at TDP1 (real-time fluorescent test, 1.5 nM TDP1, 50 nM substrate, 26 °C) is listed as “did not inhibit the enzyme”.

Take `CC(=O)c1c(O)c(C)c(O)c2c1OC1=CC(=O)/C(=C(/C)NCCCC(=O)OCC[C@H](C)CCC=C(C)C)C(=O)[C@@]12C` [13a, (3R)-3,7-Dimethyloct-6-en-1-yl 4-({1-[(2R,4E)-10-acetyl-11,13-dihydroxy-2,12-dimethyl-3,5-dioxo-8-oxatricyclo[7.4.0.0^2,7]trideca-1(13),6,9,11-tetraen-4-ylidene]ethyl}amino)butanoate]: the IC50 at TDP1 (setting [1]), on TDP1 (setting [2]), on TDP1 (setting [3]) and on TDP1 (setting [4]) was > 10 µM in each case.

As for `CC(=O)c1c(O)c(C)c(O)c2c1OC1=CC(=O)/C(=C(/C)NCCCC(=O)OC/C=C(\C)CCC=C(C)C)C(=O)[C@@]12C` [13b, (2E)-3,7-Dimethylocta-2,6-dien-1-yl 4-({1-[(2R,4E)-10-acetyl-11,13-dihydroxy-2,12-dimethyl-3,5-dioxo-8-oxatricyclo[7.4.0.0^2,7]trideca-1(13),6,9,11-tetraen-4-ylidene]ethyl}amino)butanoate], the 50% inhibitory concentration (IC50) on TDP1 (setting [1]), at TDP1 (setting [2]), on TDP1 (setting [3]) and on TDP1 (setting [4]) was > 10 µM each time.

For the compound `CC(=O)c1c(O)c(C)c(O)c2c1OC1=CC(=O)/C(=C(/C)NCCCC(=O)OCCC3=CC[C@H]4C[C@@H]3C4(C)C)C(=O)[C@@]12C` [13c, 2-[(1R,5S)-6,6-Dimethylbicyclo[3.1.1]hept-2-en-2-yl]ethyl 4-({1-[(2R,4E)-10-acetyl-11,13-dihydroxy-2,12-dimethyl-3,5-dioxo-8-oxatricyclo[7.4.0.0^2,7]trideca-1(13),6,9,11-tetraen-4-ylidene]ethyl}amino)butanoate], the 50% inhibitory concentration (IC50) at TDP1 (setting [1]), on TDP1 (setting [2]), at TDP1 (setting [3]) and on TDP1 (setting [4]) was > 10 µM in each case.

With `CC(=O)c1c(O)c(C)c(O)c2c1OC1=CC(=O)/C(=C(/C)NCCCC(=O)OCC3=CC[C@H]4C[C@@H]3C4(C)C)C(=O)[C@@]12C` [13d, [(1R,5S)-6,6-Dimethylbicyclo[3.1.1]hept-2-en-2-yl]methyl 4-({1-[(2R,4E)-10-acetyl-11,13-dihydroxy-2,12-dimethyl-3,5-dioxo-8-oxatricyclo[7.4.0.0^2,7]trideca-1(13),6,9,11-tetraen-4-ylidene]ethyl}amino)butanoate], the half-inhibitory concentration (IC50) on TDP1 (setting [1]), on TDP1 (setting [2]), at TDP1 (setting [3]) and at TDP1 (setting [4]) was > 10 µM throughout.

On to `C=C(C)[C@@H]1CC=C(COC(=O)CCCN/C(C)=C2\C(=O)C=C3Oc4c(C(C)=O)c(O)c(C)c(O)c4[C@@]3(C)C2=O)CC1` [13e, [(4S)-4-(Prop-1-en-2-yl)cyclohex-1-en-1-yl]methyl 4-({1-[(2R,4E)-10-acetyl-11,13-dihydroxy-2,12-dimethyl-3,5-dioxo-8-oxatricyclo[7.4.0.0^2,7]trideca-1(13),6,9,11-tetraen-4-ylidene]ethyl}amino)butanoate], for which the IC50 on TDP1 (setting [1]), on TDP1 (setting [2]), at TDP1 (setting [3]) and at TDP1 (setting [4]) was > 10 µM in each case.

As a reminder, the IC50 is the concentration at which inhibition is half-maximal.

Source of the values: PMC8301776, “New Hybrid Compounds Combining Fragments of Usnic Acid and Monoterpenoids for Effective Tyrosyl-DNA Phosphodiesterase 1 Inhibition” (Biomolecules, 2021).
